# Assays:
# [1] = Solubility in water (description of test compound); format: physicochemical
# [2] = test system: KM mice (tail suspension model of behavioral despair); experiment: Tail suspension test after single intragastric (oral) administration; format: in vivo; conditions: tail suspension test 1 h after administration, last 4 min, mean ± SEM
# Method: (§1) The experimental animals were male SPF grade KM mice purchased from Kunming Medical University, weighed 21-24 g, certificate no. SCXK(Dian)K2015-0002. The experimental animals were bred in individually ventilated cages (IVCs) in animal room in Dianqing Biotechnology, Ltd., Yunnan (facility no. 13-11-078 and 13-11-079; manufacture date: Nov. 24, 2013). The room temperature was controlled at 22-24° C. with humidity at 40-70% and 12-hour light/dark cycle (7:00 am/19:00 pm). The cages and padding were changed twice a week. The raising method was group raising and there were 10 mice accommodated in each cage. The feed was sterilized feed from Jiangsu Xietong Medical Bioengineering, Ltd., certificate no.: (2014)01008. Feed was supplied once daily with free access . Tap water was supplied in boxes with free access.
# A. Behavioral testing was performed in different treatment groups (1.0 mg/kg, 5.0 mg/kg, 10.0 mg/kg, 15.0 mg/kg, 30.0 mg/kg) 1 h after intragastric (i.g.) administration of the compound of formula 1;
# B. In the negative control group receiving normal saline (NS), the behavioral testing was conducted at the same time;
# C. In the positive control group receiving imipramine (IMI; 15 mg/kg), the behavioral testing was conducted at the same time;
# Route of administration: The test compound of formula 1, normal saline or imipramine was administered by intragatric administration according to the experimental design.
# Time of administration: The animals were accommodated to the experimental environment for 1 hour, administrated by intragatric administration, and subjected to tail suspension test 1 hour after the administration.
# Test criterion: The mice were subjected to a 6-minute tail suspension test, and the cumulative time of immobility in the first 2 minutes and the last 4 minutes was recorded. The criterion for immobility is that the mouse stops struggling and remains steady.
# (§2) A depression model of behavioral despair, ie. tail suspension model, was used. Animals were accommodated to the company's breeding environment for 1 day. During the adaptation, animals with non-smooth and unclean hair, high alertness or aggressivity were excluded.
# (§3) Animals were accommodated to the experimental environment for 1 hour, weighed, and randomized according to the body weight into a normal saline control group, an imipramine control group and treatment groups with different doses.
# (§4) In the tail suspension test, animals in all groups were administered with corresponding drugs by a single intragastric administration. 1 h after the administration, tails of mice were fixed with medical tape at about 1-2 cm from the end, such that the mice were hanged in the tail suspension box with the heads about 10 cm above the bottom of the box. The observation started immediately after hanging. In the 6-minute observation, the cumulative time of immobility in the first 2 minutes and the last 4 minutes was recorded. A video was recorded with obviously contrasted background with the hair color of the mice, for example, black background was used for white mice.
# (§5) The cumulative time of immobility within the last 4 minutes was compared between the test compound groups and the normal saline group using SPSS 11.0 software. One-way analysis of variance (ANOVA) was used for comparison among multiple groups, and independent sample T test was performed for comparisons in pairs. P <0.05 indicates a statistically significant difference. All statistical diagrams were plotted in mean ±SEM using Origin 8.0 software.
# [3] = test system: NMDA receptor; experiment: Whole-cell NMDAR current (NMDAR-EPSC) recording in hippocampal CA1 pyramidal cells of brain slices; format: cell-based, mice; conditions: hippocampal CA1 pyramidal cells at +40 mV, last 10 min of 20 min
# Method: Male C57BL/6 mice, aged 3-9 weeks, were purchased from Beijing Vital River Laboratory Animal Technology Co., Ltd. (Beijing, China). The animals were bred at 23 ±1° C. The room temperature was controlled at 22-24° C. with humidity at 40-70% and 12-hour light/dark cycle (7:00 am/19:00 pm).
# A. The baseline whole-cell NMDAR current was recorded in 10 minutes before the compound of formula 1 (0.76, 3.8 mM/L) was dissolved in artificial cerebrospinal fluid (vehicle) and added with the brain slice circulation fluid.
# B. An identical volume of artificial cerebrospinal fluid (vehicle) was added with the brain slice circulation fluid.
# Treatment: The brain slice circulation fluid was directly added.
# Time of treatment: 10 minutes after baseline recording.
# Test item: depolarization voltage-induced whole-cell NMDAR receptor currents.
# Hippocampal brain slices: The animals were anesthetized with isoflurane and the brains were collected quickly. […]
# Whole-cell NMDAR current recording: NMDAR whole cell EPSC recording was performed in hippocampal CA1 pyramidal cells. […] The electrical signal in whole cells was recorded using a Clampfit 10.3 software (Axon Instruments) equipped with an Axopatch-700B amplifier (Axon Instruments, Foster City, Calif.) and a Digiclata 1440A digital-to-analog converter, with filtering set at 2.8 kHz and sampling at 10 kHz. […]
# [4] = test system: KM mice (tail suspension model of behavioral despair); experiment: Tail suspension test after single intraperitoneal injection; format: in vivo; conditions: tail suspension test 0.5 h after administration, last 4 min, mean ± SEM
# Method: as §1, with “access.” for “access .”
# A. Behavioral testing was performed in different treatment groups (1.0 mg/kg, 5.0 mg/kg, 10.0 mg/kg, 20.0 mg/kg) 0.5 h after intraperitoneal (i.p.) injection of the compound of formula 1;
# B. In the control group receiving normal saline (NS), the behavioral testing was conducted at the same time;
# C. In the control group receiving imipramine (IMI; 15 mg/kg), the behavioral testing was conducted at the same time;
# Route of administration: The test compound of formula 1, normal saline or imipramine was administered by intraperitoneal injection according to the experimental design.
# Time of administration: The animals were accommodated to the experimental environment for 1 hour, administrated by intraperitoneal injection and subjected to tail suspension test 0.5 hour after the administration.
# Test criterion: The mice were subjected to a 6-minute tail suspension test, and the cumulative time of immobility in the first 2 minutes and the last 4 minutes was recorded. The criterion for immobility was that the mouse stops struggling and remains steady.
# as §2, §3
# as §4, with “groups for tail suspension test” for “groups”, “intraperitoneal injection. 0.5” for “intragastric administration. 1”
# as §5
Solubility in water [1],SMILES,Time of immobility (% of NS) ([2]; 1 mg/kg i.g.),Time of immobility (% of NS) ([2]; 5 mg/kg i.g.),Time of immobility (% of NS) ([2]; 10 mg/kg i.g.),Time of immobility (% of NS) ([2]; 15 mg/kg i.g.),Time of immobility (% of NS) ([2]; 30 mg/kg i.g.),NMDAR current (% of Baseline) ([3]; 0.76 mM/L in circulating artificial cerebrospinal fluid),NMDAR current (% of Baseline) ([3]; 3.8 mM/L in circulating artificial cerebrospinal fluid),Time of immobility (% of NS) ([4]; 1 mg/kg i.p.),Time of immobility (% of NS) ([4]; 5 mg/kg i.p.),Time of immobility (% of NS) ([4]; 10 mg/kg i.p.),Time of immobility (% of NS) ([4]; 20 mg/kg i.p.),Time of immobility (% of NS) ([4]; 15 mg/kg i.p.)
easily soluble in water,Cc1ccc(O[C@@H]2OC(CO)[C@@H](O)[C@H](O)C2O)cc1O[C@@H]1OC(CO)[C@@H](O)[C@H](O)C1O (some centres unmarked) [Compounds of formula 1],87.14 ± 11.27 % of NS,72.67 ± 7.89 % of NS,66.86 ± 8.80 % of NS,68.33 ± 7.17 % of NS,77.38 ± 6.00 % of NS,108.80 ± 5.86 % of Baseline,155.53 ± 20.85 % of Baseline,104.02 ± 16.80 % of NS,72.12 ± 8.57 % of NS,60.44 ± 7.53 % of NS,104.66 ± 14.75 % of NS,
,"CN(C)CCCN1c2ccccc2CCc2ccccc21 [IMI, imipramine, reference compound]",,,,58.64 ± 5.42 % of NS,,,,,,,,58.12 ± 5.66 % of NS

# Reference: patent US20220048939A1, “AROMATIC RING COMPOUND” (HAIKOU KAIBAO INDUSTRIAL CO., LTD, priority 2019, published 2022)
